Test results taken from patent US11725011B2, “Bicyclic urea kinase inhibitors and uses thereof” (The Broad Institute, Inc., priority 2016, dated 2023).

Tests used:
[1] = target: SIK2 (Homo sapiens (Human), UniProt Q9H0K1); assay: Percent activity against SIK2 at 1 μM; assay type: biochemical
[2] = target: SIK3 (Homo sapiens (Human), UniProt Q9Y2K2); assay: Percent activity against SIK3 at 1 μM; assay type: biochemical
[3] = target: ABL1 (F317I)-phosphorylated (Homo sapiens (Human), UniProt P00519, F317I); assay: KINOMEscan; assay type: binding; conditions: 1 uM
[4] = target: ALK (C1156Y) (Homo sapiens (Human), UniProt Q9UM73, C1156Y); assay: KINOMEscan; assay type: binding; conditions: 1 uM
[5] = target: ASK1 (Homo sapiens (Human), UniProt Q99683); assay: KINOMEscan; assay type: binding; conditions: 1 uM
[6] = target: ASK2 (Homo sapiens (Human), UniProt O95382); assay: KINOMEscan; assay type: binding; conditions: 1 uM
[7] = target: BLK (Homo sapiens (Human), UniProt P51451); assay: KINOMEscan; assay type: binding; conditions: 1 uM
[8] = target: BMPR1A (Homo sapiens (Human), UniProt P36894); assay: KINOMEscan; assay type: binding; conditions: 1 uM
[9] = target: CAMKK1 (Homo sapiens (Human), UniProt Q8N5S9); assay: KINOMEscan; assay type: binding; conditions: 1 uM
[10] = target: CASK (Homo sapiens (Human), UniProt O14936); assay: KINOMEscan; assay type: binding; conditions: 1 uM
[11] = target: CDKL5 (Homo sapiens (Human), UniProt O76039); assay: KINOMEscan; assay type: binding; conditions: 1 uM
[12] = target: CHEK2 (Homo sapiens (Human), UniProt O96017); assay: KINOMEscan; assay type: binding; conditions: 1 uM
[13] = target: DCAMKL2 (Homo sapiens (Human), UniProt Q8N568); assay: KINOMEscan; assay type: binding; conditions: 1 uM
[14] = target: DDR2 (Homo sapiens (Human), UniProt Q16832); assay: KINOMEscan; assay type: binding; conditions: 1 uM
[15] = target: EPHA3 (Homo sapiens (Human), UniProt P29320); assay: KINOMEscan; assay type: binding; conditions: 1 uM
[16] = target: ERK2 (Homo sapiens (Human), UniProt P28482); assay: KINOMEscan; assay type: binding; conditions: 1 uM
[17] = target: FAK (Homo sapiens (Human), UniProt Q05397); assay: KINOMEscan; assay type: binding; conditions: 1 uM
[18] = target: FGFR1 (Homo sapiens (Human), UniProt P11362); assay: KINOMEscan; assay type: binding; conditions: 1 uM
[19] = target: FGFR3 (Homo sapiens (Human), UniProt P22607); assay: KINOMEscan; assay type: binding; conditions: 1 uM
[20] = target: IRAK1 (Homo sapiens (Human), UniProt P51617); assay: KINOMEscan; assay type: binding; conditions: 1 uM
[21] = target: LATS1 (Homo sapiens (Human), UniProt O95835); assay: KINOMEscan; assay type: binding; conditions: 1 uM
[22] = target: LOK (Homo sapiens (Human), UniProt O94804); assay: KINOMEscan; assay type: binding; conditions: 1 uM
[23] = target: MAK (Homo sapiens (Human), UniProt P20794); assay: KINOMEscan; assay type: binding; conditions: 1 uM
[24] = target: MAP3K3 (Homo sapiens (Human), UniProt Q99759); assay: KINOMEscan; assay type: binding; conditions: 1 uM
[25] = target: MAST1 (Homo sapiens (Human), UniProt Q9Y2H9); assay: KINOMEscan; assay type: binding; conditions: 1 uM
[26] = target: MST1R (Homo sapiens (Human), UniProt Q04912); assay: KINOMEscan; assay type: binding; conditions: 1 uM
[27] = target: MUSK (Homo sapiens (Human), UniProt O15146); assay: KINOMEscan; assay type: binding; conditions: 1 uM
[28] = target: MYLK2 (Homo sapiens (Human), UniProt Q9H1R3); assay: KINOMEscan; assay type: binding; conditions: 1 uM
[29] = target: NDR2 (Homo sapiens (Human), UniProt Q9Y2H1); assay: KINOMEscan; assay type: binding; conditions: 1 uM
[30] = target: NEK4 (Homo sapiens (Human), UniProt P51957); assay: KINOMEscan; assay type: binding; conditions: 1 uM
[31] = target: NLK (Homo sapiens (Human), UniProt Q9UBE8); assay: KINOMEscan; assay type: binding; conditions: 1 uM
[32] = target: PHKG2 (Homo sapiens (Human), UniProt P15735); assay: KINOMEscan; assay type: binding; conditions: 1 uM
[33] = target: PIM1 (Homo sapiens (Human), UniProt P11309); assay: KINOMEscan; assay type: binding; conditions: 1 uM
[34] = target: PIP5K2C (Homo sapiens (Human), UniProt Q8TBX8); assay: KINOMEscan; assay type: binding; conditions: 1 uM
[35] = target: PRP4 (Homo sapiens (Human), UniProt Q13523); assay: KINOMEscan; assay type: binding; conditions: 1 uM
[36] = target: RSK1 (Kin.Dom.1-N-terminal) (Homo sapiens (Human), UniProt Q15418); assay: KINOMEscan; assay type: binding; conditions: 1 uM
[37] = target: SgK110 (Homo sapiens (Human), UniProt P0C264); assay: KINOMEscan; assay type: binding; conditions: 1 uM
[38] = target: SRC (Homo sapiens (Human), UniProt P12931); assay: KINOMEscan; assay type: binding; conditions: 1 uM
[39] = target: TLK2 (Homo sapiens (Human), UniProt Q86UE8); assay: KINOMEscan; assay type: binding; conditions: 1 uM
[40] = target: VEGFR2 (Homo sapiens (Human), UniProt P35968); assay: KINOMEscan; assay type: binding; conditions: 1 uM
[41] = target: YANK3 (Homo sapiens (Human), UniProt Q86UX6); assay: KINOMEscan; assay type: binding; conditions: 1 uM
[42] = compound at 1 μM, approximate Km for ATP

Sequence of SIK2 (Q9H0K1 whole entry): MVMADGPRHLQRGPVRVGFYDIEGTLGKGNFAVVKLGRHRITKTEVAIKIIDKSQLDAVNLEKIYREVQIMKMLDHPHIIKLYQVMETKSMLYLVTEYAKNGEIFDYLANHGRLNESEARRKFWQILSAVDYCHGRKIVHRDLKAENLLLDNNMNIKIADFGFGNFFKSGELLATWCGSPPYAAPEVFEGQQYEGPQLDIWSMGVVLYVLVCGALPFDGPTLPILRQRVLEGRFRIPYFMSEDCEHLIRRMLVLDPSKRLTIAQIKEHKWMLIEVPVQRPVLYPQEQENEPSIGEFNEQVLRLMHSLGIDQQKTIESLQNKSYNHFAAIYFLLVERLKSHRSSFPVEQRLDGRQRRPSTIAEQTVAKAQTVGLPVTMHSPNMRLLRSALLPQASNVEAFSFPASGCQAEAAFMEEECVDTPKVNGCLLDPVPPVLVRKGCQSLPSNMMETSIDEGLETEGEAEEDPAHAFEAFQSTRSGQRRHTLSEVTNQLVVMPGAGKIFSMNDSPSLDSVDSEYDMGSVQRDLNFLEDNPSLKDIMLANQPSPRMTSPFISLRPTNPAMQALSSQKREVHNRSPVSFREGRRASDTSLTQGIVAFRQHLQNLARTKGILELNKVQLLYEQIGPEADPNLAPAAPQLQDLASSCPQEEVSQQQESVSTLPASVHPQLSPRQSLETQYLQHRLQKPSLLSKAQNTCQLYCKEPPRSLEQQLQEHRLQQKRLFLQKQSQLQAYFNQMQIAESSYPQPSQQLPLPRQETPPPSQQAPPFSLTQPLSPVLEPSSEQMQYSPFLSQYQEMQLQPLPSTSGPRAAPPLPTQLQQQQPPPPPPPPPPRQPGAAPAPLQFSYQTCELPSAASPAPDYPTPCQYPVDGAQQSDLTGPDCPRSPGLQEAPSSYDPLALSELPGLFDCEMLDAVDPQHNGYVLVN
Sequence of SIK3 (Q9Y2K2 whole entry): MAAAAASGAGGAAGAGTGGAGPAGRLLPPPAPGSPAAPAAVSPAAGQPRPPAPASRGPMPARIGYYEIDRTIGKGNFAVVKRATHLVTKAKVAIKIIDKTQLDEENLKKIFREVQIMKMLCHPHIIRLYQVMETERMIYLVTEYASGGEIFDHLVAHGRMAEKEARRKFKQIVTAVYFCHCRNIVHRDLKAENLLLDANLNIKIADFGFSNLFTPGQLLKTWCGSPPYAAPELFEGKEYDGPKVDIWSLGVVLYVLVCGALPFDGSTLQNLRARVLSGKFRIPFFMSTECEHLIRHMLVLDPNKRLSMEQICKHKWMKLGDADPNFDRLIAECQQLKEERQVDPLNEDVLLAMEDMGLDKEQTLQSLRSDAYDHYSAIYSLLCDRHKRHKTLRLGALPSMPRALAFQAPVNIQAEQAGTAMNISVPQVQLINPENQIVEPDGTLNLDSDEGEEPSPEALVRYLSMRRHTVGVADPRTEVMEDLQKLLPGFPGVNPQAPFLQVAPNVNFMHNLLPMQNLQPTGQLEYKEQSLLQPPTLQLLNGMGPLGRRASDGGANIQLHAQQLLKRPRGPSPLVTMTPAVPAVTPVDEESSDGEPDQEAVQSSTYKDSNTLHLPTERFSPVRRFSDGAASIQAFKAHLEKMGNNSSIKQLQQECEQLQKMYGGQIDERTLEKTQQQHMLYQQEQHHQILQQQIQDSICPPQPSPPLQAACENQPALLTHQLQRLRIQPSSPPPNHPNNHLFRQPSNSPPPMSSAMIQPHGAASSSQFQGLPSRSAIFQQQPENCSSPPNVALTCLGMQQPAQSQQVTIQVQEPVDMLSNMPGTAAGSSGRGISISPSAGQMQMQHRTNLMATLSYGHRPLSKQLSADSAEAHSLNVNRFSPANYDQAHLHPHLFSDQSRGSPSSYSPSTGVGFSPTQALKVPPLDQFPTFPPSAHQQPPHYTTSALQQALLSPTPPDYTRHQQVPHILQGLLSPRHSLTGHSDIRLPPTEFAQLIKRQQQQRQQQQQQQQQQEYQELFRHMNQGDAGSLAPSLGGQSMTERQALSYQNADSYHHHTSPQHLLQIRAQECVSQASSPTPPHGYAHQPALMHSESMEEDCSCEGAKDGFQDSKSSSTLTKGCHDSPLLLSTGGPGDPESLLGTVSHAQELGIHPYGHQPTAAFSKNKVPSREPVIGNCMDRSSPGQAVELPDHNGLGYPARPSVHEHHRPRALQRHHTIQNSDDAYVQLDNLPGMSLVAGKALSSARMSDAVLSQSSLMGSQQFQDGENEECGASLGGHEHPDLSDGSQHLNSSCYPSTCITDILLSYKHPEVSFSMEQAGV
Sequence of MST1R (Q04912 25-1400): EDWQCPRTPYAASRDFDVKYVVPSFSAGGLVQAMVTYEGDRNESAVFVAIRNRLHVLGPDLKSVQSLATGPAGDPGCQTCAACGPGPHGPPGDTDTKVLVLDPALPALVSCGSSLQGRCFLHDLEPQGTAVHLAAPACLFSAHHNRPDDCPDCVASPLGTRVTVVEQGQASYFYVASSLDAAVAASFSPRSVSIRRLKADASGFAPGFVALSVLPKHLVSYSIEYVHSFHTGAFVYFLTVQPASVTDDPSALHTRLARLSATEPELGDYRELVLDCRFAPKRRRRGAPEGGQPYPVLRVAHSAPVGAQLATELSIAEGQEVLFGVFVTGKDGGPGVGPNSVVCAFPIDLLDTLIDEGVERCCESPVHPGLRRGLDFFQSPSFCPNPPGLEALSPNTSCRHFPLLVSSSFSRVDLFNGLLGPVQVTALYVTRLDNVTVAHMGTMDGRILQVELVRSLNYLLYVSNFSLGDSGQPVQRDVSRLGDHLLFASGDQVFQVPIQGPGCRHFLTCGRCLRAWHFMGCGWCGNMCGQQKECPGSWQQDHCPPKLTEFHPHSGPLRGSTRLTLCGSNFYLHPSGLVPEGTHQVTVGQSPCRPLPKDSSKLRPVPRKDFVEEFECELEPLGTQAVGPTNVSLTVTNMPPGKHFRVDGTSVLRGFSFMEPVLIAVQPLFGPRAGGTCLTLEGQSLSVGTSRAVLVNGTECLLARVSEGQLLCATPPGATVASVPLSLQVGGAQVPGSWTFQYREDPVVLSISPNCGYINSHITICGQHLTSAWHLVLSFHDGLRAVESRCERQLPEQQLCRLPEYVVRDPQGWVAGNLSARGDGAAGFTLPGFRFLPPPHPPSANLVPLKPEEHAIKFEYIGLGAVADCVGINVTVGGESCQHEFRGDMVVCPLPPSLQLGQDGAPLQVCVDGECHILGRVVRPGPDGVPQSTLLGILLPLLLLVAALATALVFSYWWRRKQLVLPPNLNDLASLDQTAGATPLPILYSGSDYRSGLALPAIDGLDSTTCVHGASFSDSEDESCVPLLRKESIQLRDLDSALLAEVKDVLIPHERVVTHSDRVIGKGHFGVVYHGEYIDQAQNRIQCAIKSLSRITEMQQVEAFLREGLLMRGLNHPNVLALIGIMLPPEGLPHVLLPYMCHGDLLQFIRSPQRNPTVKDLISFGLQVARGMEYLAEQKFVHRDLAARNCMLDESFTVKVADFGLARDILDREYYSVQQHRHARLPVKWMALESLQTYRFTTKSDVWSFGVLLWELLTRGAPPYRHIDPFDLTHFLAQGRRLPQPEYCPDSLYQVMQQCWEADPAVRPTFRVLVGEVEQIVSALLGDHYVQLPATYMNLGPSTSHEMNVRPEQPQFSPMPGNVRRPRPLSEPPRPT
Sequence of PIM1 (P11309 whole entry): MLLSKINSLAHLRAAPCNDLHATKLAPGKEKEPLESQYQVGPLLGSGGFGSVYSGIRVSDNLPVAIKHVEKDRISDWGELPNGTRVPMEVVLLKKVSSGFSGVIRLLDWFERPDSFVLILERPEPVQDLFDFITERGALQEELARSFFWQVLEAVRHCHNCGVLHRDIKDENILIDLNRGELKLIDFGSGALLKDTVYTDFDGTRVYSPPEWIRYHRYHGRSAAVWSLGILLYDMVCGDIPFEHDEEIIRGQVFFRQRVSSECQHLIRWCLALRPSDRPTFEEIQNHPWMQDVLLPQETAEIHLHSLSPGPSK
Sequence of FGFR3 (P22607 23-806): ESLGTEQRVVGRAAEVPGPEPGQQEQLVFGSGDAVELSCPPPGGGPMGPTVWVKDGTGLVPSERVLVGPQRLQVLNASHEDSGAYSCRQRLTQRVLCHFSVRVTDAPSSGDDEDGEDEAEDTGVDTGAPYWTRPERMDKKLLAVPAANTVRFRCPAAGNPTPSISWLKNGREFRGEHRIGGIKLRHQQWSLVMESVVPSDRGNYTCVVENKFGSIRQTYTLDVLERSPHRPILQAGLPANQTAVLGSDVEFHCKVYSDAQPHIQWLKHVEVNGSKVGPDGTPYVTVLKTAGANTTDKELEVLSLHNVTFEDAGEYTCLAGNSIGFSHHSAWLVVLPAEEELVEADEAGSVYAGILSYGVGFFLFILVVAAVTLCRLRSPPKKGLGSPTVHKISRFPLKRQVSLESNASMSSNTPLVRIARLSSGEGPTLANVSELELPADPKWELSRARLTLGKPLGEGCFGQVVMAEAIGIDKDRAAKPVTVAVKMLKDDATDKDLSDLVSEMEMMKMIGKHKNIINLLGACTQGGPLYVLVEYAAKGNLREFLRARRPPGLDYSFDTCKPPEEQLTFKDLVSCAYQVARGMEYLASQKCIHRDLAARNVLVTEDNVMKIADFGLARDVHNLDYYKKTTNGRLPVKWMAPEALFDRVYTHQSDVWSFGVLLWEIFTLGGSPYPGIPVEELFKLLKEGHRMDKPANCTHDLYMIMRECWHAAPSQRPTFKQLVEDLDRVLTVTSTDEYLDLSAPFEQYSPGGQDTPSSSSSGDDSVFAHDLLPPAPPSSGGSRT
Sequence of RSK1 (Kin.Dom.1-N-terminal) (Q15418 62-321): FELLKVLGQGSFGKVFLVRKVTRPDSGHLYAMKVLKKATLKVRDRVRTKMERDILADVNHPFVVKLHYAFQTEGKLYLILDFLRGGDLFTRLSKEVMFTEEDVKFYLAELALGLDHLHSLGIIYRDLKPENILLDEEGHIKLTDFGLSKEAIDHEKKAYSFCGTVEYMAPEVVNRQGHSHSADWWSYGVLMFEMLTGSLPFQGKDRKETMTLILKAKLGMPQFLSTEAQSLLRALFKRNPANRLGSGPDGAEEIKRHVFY

## COc1ccc(N2C(=O)N(c3c(C)cccc3C)Cc3cnc(Nc4ccc(N5CCN(C)CC5)cc4)nc32)c(OC)c1 [HG-11-136-01]
[1]; 1 μM
  Enzyme activity at 1 μM (%) SIK2: 2.8%
[1]; [42]
  SIK2 % ACTIVITY: 2.8%
[2]; 1 μM
  Enzyme activity at 1 μM (%) SIK3: 9%
[2]; [42]
  SIK3 % ACTIVITY: 9%
[3]
  KINOMEscan ABL1 (F317I)-phosphorylated: 1.3
[4]
  KINOMEscan ALK (C1156Y): 12
[5]
  KINOMEscan ASK1: 100
[6]
  KINOMEscan ASK2: 46
[7]
  KINOMEscan BLK: 0.1
[8]
  KINOMEscan BMPR1A: 4.6
[9]
  KINOMEscan CAMKK1: 94
[10]
  KINOMEscan CASK: 54
[11]
  KINOMEscan CDKL5: 98
[12]
  KINOMEscan CHEK2: 46
[13]
  KINOMEscan DCAMKL2: 88
[14]
  KINOMEscan DDR2: 1.6
[15]
  KINOMEscan EPHA3: 0.8
[16]
  KINOMEscan ERK2: 96
[17]
  KINOMEscan FAK: 24
[18]
  KINOMEscan FGFR1: 0.15
[19]
  KINOMEscan FGFR3: 0.95
[20]
  KINOMEscan IRAK1: 4.4
[21]
  KINOMEscan LATS1: 100
[22]
  KINOMEscan LOK: 0
[23]
  KINOMEscan MAK: 100
[24]
  KINOMEscan MAP3K3: 0.1
[25]
  KINOMEscan MAST1: 62
[26]
  KINOMEscan MST1R: 100
[27]
  KINOMEscan MUSK: 86
[28]
  KINOMEscan MYLK2: 81
[29]
  KINOMEscan NDR2: 28
[30]
  KINOMEscan NEK4: 100
[31]
  KINOMEscan NLK: 7.6
[32]
  KINOMEscan PHKG2: 93
[33]
  KINOMEscan PIM1: 100
[34]
  KINOMEscan PIP5K2C: 100
[35]
  KINOMEscan PRP4: 100
[36]
  KINOMEscan RSK1 (Kin.Dom.1-N-terminal): 48
[37]
  KINOMEscan SgK110: 8.6
[38]
  KINOMEscan SRC: 0.15
[39]
  KINOMEscan TLK2: 92
[40]
  KINOMEscan VEGFR2: 1.8
[41]
  KINOMEscan YANK3: 32
